Test results reported in US20100204161A1, “Substances and Pharmaceutical Compositions for the Inhibition of Glyoxalases and Their Use Against Bacteria” (BIOMAC PRIVATINSTITUT FUR MEDIZINISHE UND ZAHMEDIZ …, priority 2005, published 2010).

What was measured:
[1] = tested on: primary human skin fibroblasts; assay: Vitality of primary human fibroblasts (dye exclusion count); type: cell-based; conditions: 1-50 mM, serum free medium, 24 hours; FIG. 7
Experimental: An identical number (10^4 cells per well) of primary human skin fibroblasts were inoculated in 24-well plates (Greiner, no. 662160) and were cultured in DMEM (Gibco; no. 41966-092) in the presence of 10% calf serum (Biochrom, S0113/5), 2 mM L-glutamine (Gibco; no. 25030-024), penicillin/streptomycin (100 units penicillin/ml; 100 μg streptomycin/ml, Gibco; no. 15140/122), 5 mg % ascorbic acid (Serva, no. 14030.02) at 37° C., 5% CO2 and 95% humidity. The primary human fibroblasts were prepared according to the instructions of Birkenmeier et al. (1998). After reaching 50% confluency the medium was by fresh serum free medium. Thereafter the following supplements were added to the cells: preparation 1 (equivalent volume of serum free (SF) medium, blank); preparation 2 (1 mM DEL or 1 mM LEL or 1 mM EP); preparation 3 (5 mM DEL or 5 mM LEL or 5 mM EP), preparation 4 (10 mM DEL or 10 mM LEL or 10 mM EP), preparation 5 (20 mM DEL or 20 mM LEL or 20 mM EP), preparation 6 (50 mM DEL or 50 mM LEL or 50 mM EP). The culture was continued at 37° C., 5% CO2 and 95% humidity for 24 hours. Thereafter the supernatants were removed and 100 μl of a 50% […] solution was added to the wells. After washing the cells with medium the unstained and stained cells were counted under the light optical microscope comprising a coordinate plane. Cells stained blue were assessed as avital, unstained cells as vital. The percentage of unstained cells of the total number of cells corresponds to the vitality of the cells.

[2] = tested on: biofilms (biofilm-forming microorganisms from pipe water); assay: Destruction of biofilms on contaminated silicone surfaces (colony forming units); type: cell-based; conditions: for Colony forming units derivable from biofilms after treatment: normalized to 1 cm2 inner tube surface
Experimental: Biofilms were allowed to generate in a silicon tube system according to Gebel et al. (2005). In short, pipe water from a public water distributor was used as the source of biofilm-forming microorganisms. Water flow was at about 20 l per hour through silicon tubes from two commercial suppliers with inner diameters of 4 mm for 30 days at 25° C. After that the tubes were emptied, sealed at both ends and treated on their outer surface with 0.2% peroxoacetic acid for 1 hour. Tubes were then rinsed with sterile water and afterwards cut into pieces of 5 cm length each using a sterile scalpel. Pieces obtained this way were then dipped into solutions which contained the substance to be tested or respective controls. 25 ml of the test solutions were used in closed Falcon tubes (50 ml). […] Tubes were opened over their full length with scissors and the material deposited at the original inner surfaces of the tubes homogenized in 10 ml of saline (9 g NaCl/l water). Dilutions were made (decimal steps to 10^4) and 0.1 ml of these solutions plated onto test agar plates (1 l contained 0.5 g yeast extract, 0.5 g peptone, 0.5 g casein hydrolysate, 0.5 g starch. 0.3 g potassium hydrogen phosphate, 24 mg magnesium sulphate, 0.3 g sodium pyruvate, 15 g agar). Plates were incubated for seven days at 20° C. Colonies which formed were counted on each plate independent of their appearance and color. […] Two dilutions must be consistent in colony numbers, taken into consideration the respective dilution factors. Numbers were normalized to 1 cm2 of the inner tube surface. Each substance was analysed in duplicates. Biofilms were treated with water (control), ethyl pyruvate […] Numbers are given for each of the different silicon tubes used.

[3] = tested on: different microbial species: Candida spp., Escherichia coli, Klebsiella oxytoca, Pseudomonas aeruginosa, Enterococcus faecalis, Enterococcus faecium, MRSA …; assay: Agar dilution antimicrobial susceptibility test, aerobic conditions; conditions: 12.5 mM to 40 mM in agar, 37° C., 20 hours, 21 strains incl. ESBL and MRSA, FIG. 8
Experimental: The agar dilution method was used for antimicrobial susceptibility test. A series of plates (petri dishes; Greiner, Cat No. 933161) were prepared with 20 ml agar medium (Iso-Sensitest-Agar Ca. No. CM474, OXOID, Germany) to which various concentrations of EP (12.5 mM to 40 mM) were added. Control agar plates were prepared without EP. The plates are then inoculated with a suitable-standardized suspension of the test microbial species (10^4 cfu) using an automated spotter (spots 1-21). The agar plates were incubated under aerobic conditions at 37° C. for 20 hours. At the respective positions of the spots growth (if permissive under the selected conditions) will result in the formation of cell discs. The evaluation of the test results is performed by inspecting the sizes of these discs. […]

## CCOC(=O)C(C)=O [Ethyl pyruvate]
[1]
  Effect on the vitality of primary human fibroblasts: not toxic over the concentration range investigated
[2]; 10 mM, 30 min, first silicon tube
  Colony forming units derivable from biofilms after treatment: 4.9 × 10^3 colony forming units
[2]; 10 mM, 30 min, second silicon tube
  Colony forming units derivable from biofilms after treatment: 5.2 × 10^3 colony forming units
[2]; 10 mM, 120 min, first silicon tube
  Colony forming units derivable from biofilms after treatment: 1.6 × 10^3 colony forming units
[2]; 10 mM, 120 min, second silicon tube
  Colony forming units derivable from biofilms after treatment: 1.7 × 10^3 colony forming units
[2]; 25 mM, 30 min, first silicon tube
  Colony forming units derivable from biofilms after treatment: 4.4 × 10^2 colony forming units
[2]; 25 mM, 30 min, second silicon tube
  Colony forming units derivable from biofilms after treatment: 4.2 × 10^2 colony forming units
[2]; 25 mM, 120 min, first silicon tube
  Colony forming units derivable from biofilms after treatment: <10^2 colony forming units
[2]; 25 mM, 120 min, second silicon tube
  Colony forming units derivable from biofilms after treatment: <10^2 colony forming units
[2]; 25 mM, decreases from about 10^7, Table 5
  number of colony forming units after treatment of biofilm: < 10^2 colony forming units
[2]; compared to 0.1% peroxoacetic acid
  Effectiveness against biofilms compared to peroxoacetic acid: even more effective compared to a common disinfectant
[3]
  Effect on growth of different microbial species: effectively inhibits the growth and proliferation of different microbial species
